How the values were obtained:
[1] = system: peptic ulcer due to acetic acid; test: Effect on peptic ulcer due to acetic acid (duodenal); type: in vivo, male rats; conditions: for coefficient (ulcer coefficient) / Rate of suppression of ulcer: 100 mg/kg, oral; for coefficient (ulcer coefficient): 3 times a day for 10 days from third day of operation, control 8.0; for Rate of suppression of ulcer: 3 times a day for 10 days, versus control
Source text: The inventors of the present invention, taking into account of these situations, added to the above-mentioned method of evaluation the effect of accelerating the cure of the peptic ulcer by orally administering the present compound and a commercialized anti-peptic ulcer medicine, respectivey to rats to which duodenal peptic ulcer due to acetic acid (refer to Okabe, 1971) considered to be most closely resembling to human peptic ulcer has been artificially formed.
(2) Effect on peptic ulcer due to acetic acid
Following the method of Okabe et al (refer to Amer. J. Dig. Dis., 16, […], 6 groups (15 animals per group) of male rats weighing 240 to 260 g were subjected to laparotomy under ether anesthesia in which a metal circular frame was placed on the serosa at a distance of 5 to 7 mm from the duodenal pylorus, 0.06 ml of glacial acetic acid was poured into the frame. After 30 seconds, the liquid containing the acetic acid was removed and then the frame was removed. The test compound suspended in an aqueous physiological saline solution was orally administered to the rat 3 times a day from the third day of the operation for consecutive 10 days. After the administration was over, the rats were sacrificed with ether, and their duodenum was removed to observe under a microscope for anatomy. The length and width of the thus-formed ulcer were measured and their product (expressed with mm^2) was recorded as the ulcer coefficient.

[2] = Acute toxicity test, oral; parameters: species or system Female ICR-mice; conditions: mouse, in vivo, mortality observed for a week, Litchfield-Wilcoxon
Procedure: Female ICR-mice of body weight of 20 to 24 g, 5 weeks after birth were used.
Eight animal per group were kept in a transparent polycage at room temperature of 23°±1° C., and RH of 60 to 70%.
After minutely pulverizing each one of the present compounds, the pulverized compound was suspended in an aqueous 5% sodium carboxymethylcellulose solution containing 20% of Tween-80. The aqueous suspension was forcibly orally administered by a metal stomach tube, the dose rate having been adjusted by changing the concentration of the present compound in the aqueous suspension.

[3] = system: peptic ulcer due to pyloric ligation; test: Effect on peptic ulcer due to pyloric ligation; type: in vivo, male rats; conditions: 100 mg/kg, intraperitoneal; for Ulcer coefficient: 15 hours after pyloric ligation, control 41.1; for Rate of suppression of ulcer: versus control
Procedure: (1) Effect on peptic ulcer due to pyloric ligation
Six groups (10 animals per group) of male rats weighting 180 to 200 g were subjected to ligation of their pylori under ether-anesthesia after fasting for 48 hours according to the method of Shay et al. (refer to Gastroenterology, 5, page 43 (1945)).
Just after subjecting to ligation, each of the present compound suspended in an aqueous physiological saline solution was intraperitoneally administered to each rat, the control being poured to with an aqueous physiological saline solution. Then, after 15 hours of fasting without taking water, the rats were sacrificed with ether and their stomachs were removed to examine under a microscope for anatomy. The length and width of the thus-formed ulcer in the stomach were determined and expressed by the product (mm^2), and the total sum of the products was represented as the ulcer coefficient.

[4] = system: peptic ulcer; conditions: cited from earlier work

COc1cc(C2NC(=O)C(C)S2)cc(OC)c1OC (stereo not shown) [Compound 1, 2-(3,4,5-trimethoxyphenyl)-5-methylthiazolidine-4-one]
coefficient (ulcer coefficient) [1]: 2.8 mm^2 | Rate of suppression of ulcer [1]: 77.5% | LD50 at 168 h [2]: 6400 mg/kg | Ulcer coefficient [3]: 7.2 mm^2 | Rate of suppression of ulcer [3]: 82.5%

COc1ccc(C2NC(=O)C(C)S2)cc1OC (stereo not shown) [Compound 2, 2-(3,4-dimethoxyphenyl)-5-methylthiazolidine-4-one]
coefficient (ulcer coefficient) [1]: 2.4 mm^2 | Rate of suppression of ulcer [1]: 70.0% | LD50 at 168 h [2]: > 8000 mg/kg | Ulcer coefficient [3]: 6.5 mm^2 | Rate of suppression of ulcer [3]: 84.2%

COc1ccccc1C1NC(=O)C(C)S1 (stereo not shown) [Compound 3, 2-(2-methoxyphenyl)-5-methylthiazolidine-4-one]
coefficient (ulcer coefficient) [1]: 1.3 mm^2 | Rate of suppression of ulcer [1]: 83.8% | LD50 at 168 h [2]: > 8000 mg/kg | Ulcer coefficient [3]: 3.6 mm^2 | Rate of suppression of ulcer [3]: 91.2%

COc1ccc(C2NC(=O)C(C)S2)cc1 (stereo not shown) [Compound 4, 2-(4-methoxyphenyl)-5-methylthiazolidine-4-one]
coefficient (ulcer coefficient) [1]: 1.5 mm^2 | Rate of suppression of ulcer [1]: 81.3% | LD50 at 168 h [2]: > 8000 mg/kg | Ulcer coefficient [3]: 4.1 mm^2 | Rate of suppression of ulcer [3]: 90.0%

CC1(C)[C@@H](OC(=O)CCC(=O)O)CC[C@]2(C)[C@H]3C(=O)C=C4[C@@H]5C[C@@](C)(C(=O)O)CC[C@]5(C)CC[C@@]4(C)[C@]3(C)CC[C@@H]12 [carbenoxolone]
effect on ulcer-curing ([4]; commercialized medicine): excellent accelerating effect on the ulcer-curing | side effects ([4]; in vivo): aldosterone-like side effects to cause hypertension and weakening of muscular function

CC(C)=CCCC(C)=CCCC(C)=CCCC(=O)OCC=C(C)CCC=C(C)C [gefarnate, 3,7dimethyl-2,6-octadienyl 5,9,13trimethyl-4,8,12-tetradecatrienoate, reference compound]
coefficient (ulcer coefficient) [1]: 6.4 mm^2 | Rate of suppression of ulcer [1]: 20.0% | curative effect / effectiveness (in words) ([1]; acetic acid ulcer): only a slight effectiveness | Ulcer coefficient [3]: 36.1 mm^2 | Rate of suppression of ulcer [3]: about 12% | Rate of suppression of ulcer ([3]; listed as Positive control): 12.2%
